# From PubChem BioAssay (NCI)
#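 Protocol summary: plate cells (96-well), add compound at 5 concentrations, incubate 48 h, interpolate endpoints linearly. Here, GI50 denotes the concentration required for 50% inhibition of growth. Definition used: TGI = concentration required for complete inhibition of growth.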
# How the values were obtained:
# Test in all cases: growth of human tumour cells (NCI), 48 h
# MALME-3M melanoma = test system: MALME-3M melanoma
# HL-60(TB) leukemia = test system: HL-60(TB) leukemia
# SK-MEL-5 melanoma = test system: SK-MEL-5 melanoma
# UACC-62 melanoma = test system: UACC-62 melanoma
# IGROV1 ovarian = test system: IGROV1 ovarian
# HCT-15 colon = test system: HCT-15 colon
# SR leukemia = test system: SR leukemia
# OVCAR-5 ovarian = test system: OVCAR-5 ovarian
# NCI/ADR-RES ovarian = test system: NCI/ADR-RES ovarian
# A498 renal = test system: A498 renal
Compound,GI50 (MALME-3M melanoma) [µM],TGI (MALME-3M melanoma) [µM],GI50 (HL-60(TB) leukemia) [µM],TGI (HL-60(TB) leukemia) [µM],GI50 (SK-MEL-5 melanoma) [µM],TGI (SK-MEL-5 melanoma) [µM],GI50 (UACC-62 melanoma) [µM],TGI (UACC-62 melanoma) [µM],GI50 (IGROV1 ovarian) [µM],TGI (IGROV1 ovarian) [µM],GI50 (HCT-15 colon) [µM],TGI (HCT-15 colon) [µM],GI50 (SR leukemia) [µM],TGI (SR leukemia) [µM],GI50 (OVCAR-5 ovarian) [µM],TGI (OVCAR-5 ovarian) [µM],GI50 (NCI/ADR-RES ovarian) [µM],TGI (NCI/ADR-RES ovarian) [µM],TGI (A498 renal) [µM],GI50 (A498 renal) [µM]
Cc1cc(S(=O)(=O)Nc2n[nH]c(-c3ccc(Cl)cc3)c2C#N)c(S)cc1Cl,> 100,> 100,> 100,> 100,> 100,> 100,> 100,> 100,> 100,> 100,> 100,> 100,> 100,> 100,> 100,> 100,> 100,> 100,,
Cc1cc(C)c2c(=O)cc(-c3ccc(F)cc3)[nH]c2n1,,> 100,15.5,37.4,26.2,75.8,,> 100,,> 100,,> 100,,67.7,,> 100,,> 100,99.5,
CCCC(c1cc(C(C)(C)C)c(O)cc1C)c1cc(C(C)(C)C)c(O)cc1C,,9.78,,4.94,,3.26,,4.95,,14.6,,11.4,,5.33,,4.54,,12.1,4.51,
Oc1c(CCl)cc(Cl)cc1Cc1cc(Cl)cc(Cc2cc(Cl)cc(CCl)c2O)c1O,3.32,14.7,2.48,8.13,1.91,4.19,2.9,11.1,3.79,16.7,2.88,12,2.85,41,12.2,38.7,2.2,7.29,,
CSc1nc(SC)c2cnn(-c3ccnc4cc(Cl)ccc34)c2n1,32.9,> 100,21.5,50.6,51.9,> 100,33.9,> 100,47.8,> 100,> 71.3,> 100,7.88,> 31.9,> 100,> 100,51.2,> 100,> 100,> 100
C#CCOCCCC(=O)O,,,,> 100,,> 100,,> 100,,> 100,,> 100,,> 100,,> 100,,> 100,> 100,
CCN1C2=C(SC(=S)C1=C1SC(C(=O)c3ccccc3)=C(C(=O)c3ccccc3)S1)SC(=Nc1ccccc1)C2=O,21.2,> 100,> 100,> 100,> 70.8,> 100,12,> 70.1,23,> 100,> 100,> 100,3.19,> 100,> 100,> 100,> 73.9,> 100,> 100,28.1
CC(C)c1ccc2c(c1)CCC1C(C)(CN)CCCC21C (stereo not drawn),,2.8,,3.09,,3.17,,3.14,,2.93,,3.17,,2.99,,3.33,,3.61,2.78,
O=C(NCCCNc1cc(-c2cn(-c3ccccc3)nc2-c2cccc(O)c2)ccn1)c1ccc(F)cc1,1.95,4.49,2.46,6.49,1.61,3.55,2.05,5.08,4.22,24.9,1.77,4.7,1.65,6.53,2.62,28.6,2.2,5.75,,
CC(=O)N[C@@H](Cc1ccc(OP(=O)(O)O)cc1)C(=O)N[C@H]1CCC(=O)N2CCC[C@@H](C(=O)NCc3cccc4ccccc34)N2C1=O,> 25,> 25,> 25,> 25,> 25,> 25,> 25,> 25,> 25,> 25,> 25,> 25,> 25,> 25,> 25,> 25,> 25,> 25,> 25,> 25
Clc1ccc(Nc2ncnc3ccccc23)cc1,33.9,> 100,36.7,> 100,21.6,56.1,78,> 100,12.9,> 100,25.2,> 100,23,60.9,> 100,> 100,53.7,> 100,85.8,17.6
CO[C@@H]1[C@H](N(C)C(=O)c2ccccc2)C[C@@H]2O[C@]1(C)n1c3ccccc3c3c4c(c5c6ccccc6n2c5c31)C(=O)NC4=O,0.732,> 100,> 100,> 100,0.797,> 100,0.54,> 100,0.523,> 100,0.766,> 100,0.504,> 100,,,5.75,> 100,0.661,0.206
NNC(=S)N/N=C/c1ccccn1,5.19,> 100,1.74,5.92,2.63,22.3,2.03,14,3.05,> 100,1.03,> 100,0.884,90.1,3.68,> 100,2.81,> 100,9.01,1.82
CN(CCNc1ccc(C(=N)N)cc1)c1ccc(C(=N)N)cc1,26.6,> 100,49.4,> 100,13.2,28.3,32.6,> 100,68.8,> 100,31.2,> 100,28.6,> 100,> 100,> 100,63.6,> 100,44.7,4.43
